Experimental data: patent US20230141718A1, “METHODS OF TREATING GLIOBLASTOMA” (CELGENE QUANTICEL RESEARCH, INC., priority 2021, published 2023)

Legend:
Assay type in all cases: in vivo, human
CCR1 RNA = test: Blood CCR1 RNA pharmacodynamics, CC-90010-GBM-002; details: for Day 4 blood CCR1 RNA downregulation: 2-4 hours post-dose
Source text: The primary objectives of the study in this example were to establish the safety, maximum tolerated dose (MTD), and recommended phase 2 dose (RP2D) of Compound A. The preliminary efficacy, pharmacokinetics, and pharmacodynamics were also investigated.
(§1) The study described in this example (CC-90010-GBM-002/NCT04324840) is a phase 1B dose-finding study investigating standard of care of Compound A in combination with TMZ with or without radiotherapy (RT) in subjects with newly diagnosed GBM. Part A of the study is escalating the oral doses of Compound A in combination with adjuvant TMZ to estimate the MTD and/or the RP2D of Compound A as adjuvant therapy and escalating the oral doses of Compound A in combination with concomitant TMZ+radiotherapy (RT) to estimate the MTD and/or the RP2D of Compound A as concomitant therapy. Part B of the study is the safety and efficacy of Compound A administered at or below the MTD determined for the adjuvant therapy (AT) and concomitant therapy (CT).
The interim results for adjuvant Compound A+temozolomide are described. For adjuvant therapy, patients received Compound A at 15, 30, or 45 mg daily (4 days on/24 days off)+temozolomide administered per label for 6 cycles (150 mg/m^2 at Cycle 1 then 200 mg/m^2; QD for 5 days), followed by Compound A at 45 mg monotherapy daily (4 days on/24 days off).

[1] = tested on: CCR1 (C-C chemokine receptor type 1) mRNA; test: Blood CCR1 mRNA pharmacodynamics, CC-90010-GBM-001
Experimental: The primary objectives of the study in this example were determination of tumor tissue concentration and plasma pharmacokinetics (PK) of Compound A. The secondary and exploratory objectives included safety, antitumor activity, cerebrospinal fluid concentration, and pharmacodynamics (PD).
Patients were treated with Compound A at 30 mg daily on Day 1 to Day 4 prior to undergoing indicated tumor resection and to maintain platelet count above the minimum of […] recommended for surgery (Part A, preoperative treatment). Following recovery from surgery and a minimum of 4 weeks from the first dose of Compound A, subjects who were fit to continue were treated with Compound A at 45 mg on a 4 days on/24 days off schedule (180 mg per 28-day cycle). Maintenance treatment continued until disease progression, unacceptable toxicity, or withdrawal of consent.
Blood HEXIM1 (hexamethylene bis-acetamide-inducible protein 1) mRNA was increased at 72-96 hours following first dose, and the percentage increase correlated with plasma concentration of Compound A at surgery. Tumor HEXIM1 RNA increased in 10 of 11 patients. Additionally, blood HEXIM1 mRNA expression was increased in all subjects at 72-96 hours following the first dose. Percentage HEXIM1 increase was related to plasma Compound A concentration at biopsy.

newly diagnosed GBM = test: Efficacy (duration of treatment, PFS, best overall response), CC-90010-GBM-002 Part A
Source text: The Response Assessment in Neuro-Oncology criteria (RANO) is used to assess response to first-line treatment of glioblastoma. See, Leao, D. J. et al., American Journal of Neuroradiology 2019, 1-11. The RANO criteria divides response into four types of response based on imaging (MRI) and clinical features: (1) complete response (CR); (2) partial response (PR); (3) stable disease (SD); and (4) progression. For this assessment, a measurable disease is defined as bidimensional contrast-enhancing lesions with clearly defined margins, with 2 perpendicular diameters of at least 10 mm, visible on ≥2 axial slices. The nonmeasurable disease is defined as either unidimensional measurable lesions, masses with margins not clearly defined as frequently noted in the surgical margins, or lesions with maximal perpendicular diameters of <10 mm.
as §1
For adjuvant therapy, Compound A and TMZ was administered for 6 cycles, then Compound A as a monotherapy was administered in 28-day cycles until disease progression, start of a new anticancer therapy, or withdrawal of consent or physician's decision. For adjuvant therapy, Compound A was administered at 15, 30, and 45 mg 4 days on/24 days off and TMZ was administered at 150 or 200 mg/m^2 QD Days 1-5, followed by Compound A at 45 mg 4 days on/24 days off. For adjuvant therapy, part B, Compound A was administered at RP2D and TMZ was administered at 150 or 200 mg/m^2, followed by Compound A at 45 mg 4 days on/24 days off.
For concomitant therapy, Compound A, TMZ, and RT were administered for 6 weeks, then 4-week break, followed by adjuvant Compound A and TMZ for 6 cycles then Compound A monotherapy in 28-day cycles until disease progression, start of a new anticancer therapy, withdrawal of consent or physician's decision. For concomitant therapy, part A, Compound A was administered at 15 mg or 30 mg QD Days 1-4 (weeks 1,5), TMZ was administered at 75 mg/m^2/day QD, and RT was administered at 2 Gy QD×5 days/week, for 42 days. This was then followed by a break in treatment therapy, e.g., from 1 to up to 4 weeks. Thereafter, adjuvant therapy was initiated by administering Compound A at 30 mg or 45 mg and TMZ at 150 or 200 mg/m^2 QD Days 1-5 of a 28-day cycle. Adjuvant therapy cycles were repeated from 2 to 6 times. After adjuvant therapy, was a monotherapy treatment. Monotherapy comprised administering Compound A at 45 mg 4 days on/24 days off.
For Part A, eighteen patients were enrolled in the adjuvant cohort and received adjuvant Compound A 15 mg/day (n=5), 30 mg/day (n=6), or 45 mg/day (n=7) 4 days on/24 days off plus TMZ followed by Compound A monotherapy 45 mg/day 4 days on/24 days off. Fourteen patients were enrolled in the concomitant cohort and received concomitant Compound A 15 mg/day (n=6) or 30 mg/day (n=8) 4 days on/24 days off in combination with TMZ and RT, followed by adjuvant Compound A 30 mg/day 4 days on/24 days off and Compound A monotherapy 45 mg/day 4 days on/24 days off. The demographics and characteristics of treated patients are described in the below table.

SMILES: Cn1cc(-c2cc(S(C)(=O)=O)ccc2OCC2CC2)c2ccccc2c1=O [Compound A, 4-[2-(cyclopropylmethoxy)-5-methylsulfonylphenyl]-2-methylisoquinolin-1-one]
- Day 4 blood CCR1 RNA downregulation (CCR1 RNA; 15-mg group): downregulated partially
- Day 4 blood CCR1 RNA downregulation (CCR1 RNA; 30-mg group): ≥ 50%
- CCR1 downregulation (CCR1 RNA; following first and last dose of ≥30 mg, cycle 1, CC-90010-GBM-002 (FIG. 6)): ≥ 50%
- Blood CCR1 mRNA reduction ([1]; after Dose 4): ≥ 50%
- Blood CCR1 mRNA, % of baseline ([1]; after Dose 4, standard deviation 28.5): 45.8%
- CCR1 downregulation ([1]; following first and last dose of ≥30 mg, cycle 1, CC-90010-GBM-001 (FIG. 5)): ≥ 50%
- best overall response: CR (newly diagnosed GBM; adjuvant cohort): 6%
- best overall response: NE (newly diagnosed GBM; adjuvant cohort): 6%
- best overall response: PD (newly diagnosed GBM; adjuvant cohort): 11%
- best overall response: SD (newly diagnosed GBM; adjuvant cohort): 78%
- median PFS (newly diagnosed GBM; adjuvant cohort, 95% CI 3.9-NE): 7.7 months
- progression-free survival (PFS) rate at 6 months (newly diagnosed GBM; adjuvant cohort, 95% CI 31.1-77.3): 57.8%
- best overall response: CR (newly diagnosed GBM; concomitant cohort): 7%
- best overall response: NE (newly diagnosed GBM; concomitant cohort): 7%
- best overall response: PD (newly diagnosed GBM; concomitant cohort): 7%
- best overall response: SD (newly diagnosed GBM; concomitant cohort): 79%
- median PFS (newly diagnosed GBM; concomitant cohort, 95% CI 5.2-14.0): 12.3 months
- PFS rate at 6 months (newly diagnosed GBM; concomitant cohort, 95% CI 37.3-87.2): 69.2%
